According to patent US8129366B2, “VLA-4 inhibitory drug” (Daiichi Sankyo Company, Limited, priority 2005, dated 2012):
In brackets after ≈: the same amount, converted by molar mass.

How the values were obtained:
hα4 and β1 integrins = molecular target: T1, hα4 and β1 integrins (Homo sapiens, UniProt P05556+P13612); assay: In vitro inhibition of binding between CHO cells expressing hα4 and β1 integrins and Eu3+-hVCAM-1 D1D7-IgG; settings: for Ki: CHO cells expressing hα4 and β1 integrins, Eu3+-hVCAM-1 D1D7-IgG ligand, without HSA; for IC50: in the presence of 3% human serum albumin (HSA final concentration 3%)
T1 construct: expressed in transfected cells; host or cells: CHO cells
T1 sequence (P13612 34-1032): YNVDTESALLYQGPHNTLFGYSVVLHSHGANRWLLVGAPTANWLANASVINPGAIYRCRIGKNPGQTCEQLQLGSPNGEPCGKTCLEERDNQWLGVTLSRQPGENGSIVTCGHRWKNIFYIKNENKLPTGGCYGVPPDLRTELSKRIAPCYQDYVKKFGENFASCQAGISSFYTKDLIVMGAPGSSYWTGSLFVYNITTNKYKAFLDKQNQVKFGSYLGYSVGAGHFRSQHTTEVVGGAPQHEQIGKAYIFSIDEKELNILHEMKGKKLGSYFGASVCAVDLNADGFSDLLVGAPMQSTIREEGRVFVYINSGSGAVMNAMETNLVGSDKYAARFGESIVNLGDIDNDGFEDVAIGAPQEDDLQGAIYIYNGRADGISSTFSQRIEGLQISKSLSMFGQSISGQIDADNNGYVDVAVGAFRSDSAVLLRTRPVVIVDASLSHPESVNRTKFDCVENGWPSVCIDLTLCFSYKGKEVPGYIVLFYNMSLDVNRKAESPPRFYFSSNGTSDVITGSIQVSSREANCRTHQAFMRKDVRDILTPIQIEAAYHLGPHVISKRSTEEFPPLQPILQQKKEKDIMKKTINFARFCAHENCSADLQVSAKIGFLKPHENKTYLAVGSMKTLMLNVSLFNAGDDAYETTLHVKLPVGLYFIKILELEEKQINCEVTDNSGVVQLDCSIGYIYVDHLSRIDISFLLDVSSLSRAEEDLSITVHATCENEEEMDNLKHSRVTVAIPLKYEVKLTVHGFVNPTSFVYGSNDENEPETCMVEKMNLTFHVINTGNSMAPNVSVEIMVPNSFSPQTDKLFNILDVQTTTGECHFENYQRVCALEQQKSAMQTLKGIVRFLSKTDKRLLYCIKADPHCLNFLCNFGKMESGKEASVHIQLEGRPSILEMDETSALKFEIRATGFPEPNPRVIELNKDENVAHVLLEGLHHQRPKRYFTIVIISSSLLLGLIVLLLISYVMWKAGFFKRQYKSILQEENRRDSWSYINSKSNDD
T1 sequence (P05556 21-798): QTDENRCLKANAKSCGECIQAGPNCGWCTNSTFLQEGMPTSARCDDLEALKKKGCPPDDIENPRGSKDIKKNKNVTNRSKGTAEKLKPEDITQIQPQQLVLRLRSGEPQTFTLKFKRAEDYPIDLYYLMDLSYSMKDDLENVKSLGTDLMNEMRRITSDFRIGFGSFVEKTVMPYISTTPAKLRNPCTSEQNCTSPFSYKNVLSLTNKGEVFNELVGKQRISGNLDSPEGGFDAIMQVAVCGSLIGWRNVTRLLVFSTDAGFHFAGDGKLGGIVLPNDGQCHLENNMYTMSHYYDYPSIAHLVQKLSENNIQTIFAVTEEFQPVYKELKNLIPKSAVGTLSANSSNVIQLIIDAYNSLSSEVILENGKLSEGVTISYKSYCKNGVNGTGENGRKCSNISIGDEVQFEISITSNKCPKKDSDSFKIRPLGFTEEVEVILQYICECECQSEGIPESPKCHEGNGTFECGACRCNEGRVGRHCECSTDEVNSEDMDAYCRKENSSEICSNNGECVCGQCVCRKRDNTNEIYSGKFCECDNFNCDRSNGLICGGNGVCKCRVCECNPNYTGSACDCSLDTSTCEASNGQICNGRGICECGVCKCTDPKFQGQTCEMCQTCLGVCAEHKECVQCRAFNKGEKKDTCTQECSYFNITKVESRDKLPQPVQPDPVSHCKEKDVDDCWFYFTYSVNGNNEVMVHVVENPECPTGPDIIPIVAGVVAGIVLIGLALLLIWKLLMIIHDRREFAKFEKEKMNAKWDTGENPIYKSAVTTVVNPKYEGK
In short: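 Bound europium-labelled VCAM-1 D1D7-IgG on α4β1-expressing CHO cells was measured by time-resolved fluorescence after washing at 4 °C. Ligand (2 nM working dilution) and test compound, with or without 3% final HSA, were co-incubated for 1 h at room temperature in Mn²⁺-containing HEPES buffer, pH 7.5. IC50 came from % binding inhibition; Ki was calculated from ligand concentration and Scatchard Kd.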

[1] = Solubility test in first and second liquid of the Japanese Pharmacopoeia
Procedure: The solubilities of the substance under test in the first liquid (JP1, pH=1.2) of the Japanese Pharmacopoeia and the second liquid (JP2, pH=6.8) of the Japanese Pharmacopoeia, were evaluated.

[2] = first liquid of the Japanese Pharmacopoeia (JP1), pH 1.2, simulated gastric fluid, First liquid of Japanese Pharmacopoeia (μg/mL), JP1, pH=1.2
[3] = second liquid of the Japanese Pharmacopoeia (JP2), pH 6.8, aqueous buffer, Second liquid of Japanese Pharmacopoeia (μg/mL), JP2, pH=6.8

Row | SMILES | Ki (hα4 and β1 integrins) [nM] | IC50 (hα4 and β1 integrins) [nM] | solubility [1, 2] [µg/mL] | solubility [1, 3] [µg/mL] | Solubility, Second liquid of Japanese Pharmacopoeia ([1]; JP2, pH=6.8) [µg/mL]
1 | CO[C@@H]1CCN([C@H]2C[C@@H](CO[C@H]3CC[C@H](C(=O)O)CC3)N(C(=O)Cc3cc(Cl)c(NC(=O)c4csc5ccccc45)cc3F)C2)C1 [Example 32, Trans-4-[1-[[4-[(benzo[b]thiophen-3-ylcarbonyl)amino]-5-chloro-2-fluorophenyl]acetyl]-(4S)-[(3R)-methoxypyrrolidin-1-yl]-(2S)-pyrrolidinylmethoxy]cyclohexanecarboxylic acid] | 0.74 | 3.5 | 1700 (≈ 2530 µM) | 1690 (≈ 2510 µM) | –
2 | CCO[C@@H]1CCN([C@H]2C[C@@H](CO[C@H]3CC[C@H](C(=O)O)CC3)N(C(=O)Cc3cc(Cl)c(NC(=O)c4csc5ccccc45)cc3F)C2)C1 [Example 34, Trans-4-[1-[[4-[(benzo[b]thiophen-3-ylcarbonyl)amino]-5-chloro-2-fluorophenyl]acetyl]-(4S)-[(3R)-ethoxypyrrolidin-1-yl]-(2S)-pyrrolidinylmethoxy]cyclohexanecarboxylic acid] | 2 | 9.9 | > 2000 | 1640 (≈ 2390 µM) | –
3 | CN(C)C(=O)[C@@H]1CCCN1[C@H]1C[C@@H](CO[C@H]2CC[C@H](C(=O)O)CC2)N(C(=O)Cc2cc(Cl)c(NC(=O)c3csc4ccccc34)cc2F)C1 [Example 42] | 0.32 | 1.1 | > 2000 | > 2000 | 1931
4 | COC[C@@H]1C[C@H](OC)CN1[C@H]1C[C@@H](CO[C@H]2CC[C@H](C(=O)O)CC2)N(C(=O)Cc2cc(Cl)c(NC(=O)c3cn(C)c4ccccc34)cc2Cl)C1 [Example 46, Trans-4-[1-[[2,5-dichloro-4-[(1-methyl-1H-indol-3-ylcarbonyl)amino]phenyl]acetyl]-(4S)-[(2S)-methoxymethyl-(4S)-methoxypyrrolidin-1-yl]-(2S)-pyrrolidinylmethoxy]cyclohexanecarboxylic acid] | 7.3 | 15 | 1200 (≈ 1640 µM) | 1200 (≈ 1640 µM) | –
5 | CO[C@H]1CN([C@H]2C[C@@H](CO[C@H]3CC[C@H](C(=O)O)CC3)N(C(=O)Cc3cc(Cl)c(NC(=O)c4csc5ccccc45)cc3F)C2)C[C@@H]1OC [Example 52, Trans-4-[1-[[4-[(benzo[b]thiophen-3-ylcarbonyl)amino]-5-chloro-2-fluorophenyl]acetyl]-(4S)-[(3S,4S)-dimethoxypyrrolidin-1-yl]-(2S)-pyrrolidinylmethoxy]cyclohexanecarboxylic acid] | 1.2 | 8.4 | 1000 (≈ 1420 µM) | 1000 (≈ 1420 µM) | –
6 | CCO[C@H]1CN([C@H]2C[C@@H](CO[C@H]3CC[C@H](C(=O)O)CC3)N(C(=O)Cc3cc(Cl)c(NC(=O)c4cn(C)c5ccccc45)cc3Cl)C2)C[C@H]1OCC [Example 63, Trans-4-[1-[[2,5-dichloro-4-[(1-methyl-1H-indol-3-ylcarbonyl)amino]phenyl]acetyl]-(4S)-(3,4-cis-diethoxypyrrolidin-1-yl)-(2S)-pyrrolidinylmethoxy]cyclohexanecarboxylic acid] | 4.7 | 23 | 1000 (≈ 1340 µM) | 1000 (≈ 1340 µM) | –
7 | CC(=O)N[C@H]1CCN([C@H]2C[C@@H](CO[C@H]3CC[C@H](C(=O)O)CC3)N(C(=O)Cc3cc(Cl)c(NC(=O)c4csc5ccccc45)cc3F)C2)C1 [Example 66, Trans-4-[1-[[4-[(benzo[b]thiophen-3-ylcarbonyl)amino]-5-chloro-2-fluorophenyl]acetyl]-(4S)-[(3S)-acetamidopyrrolidin-1-yl]-(2S)-pyrrolidinylmethoxy]cyclohexanecarboxylic acid] | 0.42 | 14 | > 2000 | > 2000 | –
8 | Cn1cc(C(=O)Nc2cc(F)c(CC(=O)N3C[C@@H](N4CCOCC4)C[C@H]3CO[C@H]3CC[C@H](C(=O)O)CC3)cc2Cl)c2ccccc21 [Example 78, Trans-4-[1-[[5-chloro-2-fluoro-4-[(1-methyl-1H-indol-3-ylcarbonyl)amino]phenyl]acetyl]-(4S)-(morpholin-4-yl)-(2S)-pyrrolidinylmethoxy]cyclohexanecarboxylic acid] | 1.5 | 5.2 | > 2000 | > 2000 | –

The next lines start with the values.

Row | Ki (hα4 and β1 integrins) [nM] | IC50 (hα4 and β1 integrins) [nM] | solubility [1, 2] [µg/mL] | solubility [1, 3] [µg/mL] | Solubility, Second liquid of Japanese Pharmacopoeia ([1]; JP2, pH=6.8) [µg/mL] | SMILES
9 | 5.6 | 20 | > 2000 | > 2000 | – | CO[C@@H]1CCN([C@H]2C[C@@H](CO[C@H]3CC[C@H](C(=O)O)CC3)N(C(=O)Cc3cc(Cl)c(NC(=O)c4cn(C)c5ccccc45)cc3Cl)C2)C1 [Example 33, Trans-4-[1-[[2,5-dichloro-4-[(1-methyl-1H-indol-3-ylcarbonyl)amino]phenyl]acetyl]-(4S)-[(3R)-methoxypyrrolidin-1-yl]-(2S)-pyrrolidinylmethoxy]cyclohexanecarboxylic acid]
10 | 5.9 | 20 | > 2000 | > 2000 | – | CO[C@H]1CCN([C@H]2C[C@@H](CO[C@H]3CC[C@H](C(=O)O)CC3)N(C(=O)Cc3cc(Cl)c(NC(=O)c4cn(C)c5ccccc45)cc3Cl)C2)C1 [Example 35, Trans-4-[1-[[2,5-dichloro-4-[(1-methyl-1H-indol-3-ylcarbonyl)amino]phenyl]acetyl]-(4S)-[(3S)-methoxypyrrolidin-1-yl]-(2S)-pyrrolidinylmethoxy]cyclohexanecarboxylic acid]
11 | 5.9 | 24 | 1940 (≈ 2770 µM) | 1840 (≈ 2630 µM) | – | CCO[C@H]1CCN([C@H]2C[C@@H](CO[C@H]3CC[C@H](C(=O)O)CC3)N(C(=O)Cc3cc(Cl)c(NC(=O)c4cn(C)c5ccccc45)cc3Cl)C2)C1 [Example 36, Trans-4-[1-[[2,5-dichloro-4-[(1-methyl-1H-indol-3-ylcarbonyl)amino]phenyl]acetyl]-(4S)-[(3S)-ethoxypyrrolidin-1-yl]-(2S)-pyrrolidinylmethoxy]cyclohexanecarboxylic acid]
12 | 5.8 | 18 | 1000 (≈ 1400 µM) | 1000 (≈ 1400 µM) | – | CO[C@H]1CN([C@H]2C[C@@H](CO[C@H]3CC[C@H](C(=O)O)CC3)N(C(=O)Cc3cc(Cl)c(NC(=O)c4cn(C)c5ccccc45)cc3Cl)C2)C[C@@H]1OC [Example 51, Trans-4-[1-[[2,5-dichloro-4-[(1-methyl-1H-indol-3-ylcarbonyl)amino]phenyl]acetyl]-(4S)-[(3S,4S)-dimethoxypyrrolidin-1-yl]-(2S)-pyrrolidinylmethoxy]cyclohexanecarboxylic acid]
13 | 2 | 11 | 1000 (≈ 1460 µM) | 1000 (≈ 1460 µM) | – | CO[C@H]1CN([C@H]2C[C@@H](CO[C@H]3CC[C@H](C(=O)O)CC3)N(C(=O)Cc3cc(Cl)c(NC(=O)c4coc5ccccc45)cc3F)C2)C[C@@H]1OC [Example 53, Trans-4-[1-[[4-[(benzo[b]furan-3-ylcarbonyl)amino]-5-chloro-2-fluorophenyl]acetyl]-(4S)-[(3S,4S)-dimethoxypyrrolidin-1-yl]-(2S)-pyrrolidinylmethoxy]cyclohexanecarboxylic acid]
14 | 3.4 | 25 | 1000 (≈ 1420 µM) | 1000 (≈ 1420 µM) | – | CO[C@H]1CN([C@H]2C[C@@H](CO[C@H]3CC[C@H](C(=O)O)CC3)N(C(=O)Cc3cc(Cl)c(NC(=O)c4coc5ccccc45)cc3Cl)C2)C[C@@H]1OC [Example 54, Trans-4-[1-[[4-[(benzo[b]furan-3-ylcarbonyl)amino]-2,5-dichlorophenyl]acetyl]-(4S)-[(3S,4S)-dimethoxypyrrolidin-1-yl]-(2S)-pyrrolidinylmethoxy]cyclohexanecarboxylic acid]
15 | 7.9 | 18 | 1000 (≈ 1420 µM) | 1000 (≈ 1420 µM) | – | CO[C@H]1CN([C@H]2C[C@@H](CO[C@H]3CC[C@H](C(=O)O)CC3)N(C(=O)Cc3cc(Cl)c(NC(=O)c4coc5ccccc45)cc3Cl)C2)C[C@H]1OC [Example 60, Trans-4-[1-[[4-[(benzo[b]furan-3-ylcarbonyl)amino]-2,5-dichlorophenyl]acetyl]-(4S)-(cis-3,4-dimethoxypyrrolidin-1-yl)-(2S)-pyrrolidinylmethoxy]cyclohexanecarboxylic acid]
16 | 1.9 | 22 | 1000 (≈ 1460 µM) | 1000 (≈ 1460 µM) | – | O=C(Nc1cc(Cl)c(CC(=O)N2C[C@@H](N3C[C@@H]4OCO[C@@H]4C3)C[C@H]2CO[C@H]2CC[C@H](C(=O)O)CC2)cc1Cl)c1coc2ccccc12 [Example 73, Trans-4-[1-[[4-[(benzo[b]furan-3-ylcarbonyl)amino]-2,5-dichlorophenyl]acetyl]-(4S)-[(3a,6a-cis)-tetrahydro[1,3]dioxolo[4,5-c]pyrrol-5-yl]-(2S)-pyrrolidinylmethoxy]cyclohexanecarboxylic acid]
17 | 1.5 | 8.8 | 1200 (≈ 1790 µM) | 1300 (≈ 1940 µM) | – | O=C(Nc1cc(F)c(CC(=O)N2C[C@@H](N3C[C@@H]4OCO[C@@H]4C3)C[C@H]2CO[C@H]2CC[C@H](C(=O)O)CC2)cc1Cl)c1coc2ccccc12 [Example 74, Trans-4-[1-[[4-[(benzo[b]furan-3-ylcarbonyl)amino]-5-chloro-2-fluorophenyl]acetyl]-(4S)-[(3a,6a-cis)-tetrahydro[1,3]dioxolo[4,5-c]pyrrol-5-yl]-(2S)-pyrrolidinylmethoxy]cyclohexanecarboxylic acid]
